Holding throughout (assay): DTP human tumour cell line panel, 48 h
In experiment [1] the test system is COLO 205 colon.
In experiment [2] the test system is HS 578T breast.
In experiment [3] the test system is K-562 leukemia.
In experiment [4] the test system is LOX IMVI melanoma.
Experiment [5] concerns MDA-MB-231 breast.
In experiment [6] the test system is MDA-MB-435.
The test system of experiment [7] is MOLT-4 leukemia.
Experiment [8] has as its system NCI/ADR-RES ovarian.
Experiment [9] concerns OVCAR-5 ovarian.
Experiment [10] deals with SK-MEL-2 melanoma.
In experiment [11] the test system is SK-MEL-28 melanoma.
Experiment [12] concerns TK-10 renal.
In experiment [13] the test system is UO-31 renal.
The test system of experiment [14] is SNB-75 CNS.

The record followed here is PubChem BioAssay (NCI).

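Dose response: 5 concentrations. Exposure: 48 h. Format: 96-well plates. Endpoint: linear interpolation; highest concentration if not reached. TGI marks complete inhibition of growth.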

As to `CC(O)CNC(=O)Nc1c(C(F)(F)F)cc(-c2ccccc2)[nH]c1=O` (stereo not given), the TGI in [1], in [2], in [3], in experiment [4], in [5] and in experiment [6] was above 100 µM throughout. Further, the TGI in experiment [7], in experiment [8], in [9], in [10], in experiment [11] and in experiment [12] was above 100 µM each time. Also, the TGI (as a rule, the concentration at which net growth stops) in [13] was above 100 µM.
As for `CCOC(=O)C1=C(C)N(c2ccc(Cl)cc2)C2(O)C=CC(=O)C3=C(O)c4ccccc4C(=O)C312` (stereo not given), the concentration for total growth inhibition (TGI) in [1] turned out to be 11.7 µM; in experiment [2], 23.1 µM; in experiment [3], 18.1 µM; in experiment [4], 14 µM; in experiment [5] it was 25 µM; in experiment [6], 11.3 µM. In addition, the TGI in [7] was 8.65 µM; in experiment [8] it was 12.6 µM; in experiment [9], 30.7 µM; in experiment [10], 16.2 µM; in experiment [12], 8.03 µM; in experiment [13], 15.8 µM.
For `CC1(C)Cc2c(sc3[nH]c(=S)[nH]c(=S)c23)CS1`, the TGI in [1], in experiment [2], in experiment [3], in experiment [4], in experiment [5] and in [6] was above 100 µM each time. Also, the concentration for total growth inhibition (TGI) in experiment [7], in experiment [8], in [10], in experiment [11], in experiment [12] and in [13] was above 100 µM each time.
Turning to `CCN(CC)CCNc1ccc2ncn3c4ccc(OC)cc4c(=O)c1c23`, the TGI in [1] turned out to be 15.5 µM; in experiment [2], 30.4 µM; in [3], 22.7 µM; in [4], 4.68 µM; in experiment [6] it was 18.6 µM; in [7], 11 µM. Besides, the TGI in experiment [8] came out at 16.1 µM; in [9], 24 µM; in experiment [10] it was 25.4 µM; in experiment [11], 28.4 µM; in [14], 20.8 µM; in experiment [12] it was 29.2 µM. Besides, the TGI in experiment [13] was 11.8 µM.
As to `C=C(C)C1CC[C@@](C)(O)[C@H](C#N)C1` (stereo not given in full), the TGI in experiment [1], in experiment [2], in [3], in experiment [4], in experiment [5] and in [6] was above 100 µM throughout. Moreover, the TGI in [7], in [9], in experiment [10], in experiment [11], in [14] and in [12] was above 100 µM in each case. Also, in experiment [13], the TGI is above 100 µM.
Take `CC1(c2ccccc2)O[C@@H]2C[C@H]3[C@@H]4CCC5=CC(=O)C=C[C@]5(C)[C@@]4(F)[C@@H](O)C[C@]3(C)[C@]2(C(=O)CO)O1` (stereo not given in full): the TGI in experiment [1] worked out at 27.8 µM; in experiment [2] it was 45.4 µM; in experiment [3], 34.4 µM; in experiment [4] it was 47.1 µM; in experiment [5], 24.5 µM; in [6], 33.1 µM. Also, the TGI turned out to be 36 µM in [8]; 33.1 µM in experiment [9]; 28.3 µM in experiment [10]; 30.8 µM in [11]; 44.8 µM in [14]; 41.6 µM in experiment [12]. Further, the TGI in experiment [13] was determined as 33 µM.
`C=C1CN=C(Nc2ccc(Cl)cc2)S1`: the TGI is above 100 µM in experiment [1]; above 100 µM in experiment [2]; above 100 µM in experiment [3]; above 100 µM in experiment [4]; above 100 µM in experiment [5]; above 10 µM in experiment [7]. The TGI in [8], in [9], in experiment [10], in experiment [11], in experiment [14] and in experiment [12] was above 100 µM each time. In addition, the TGI in [13] was above 100 µM.
For `Cc1ccc(N2C(=O)C3c4[nH]c5ccc(C)cc5c4C4CCC(C(C)(C)C)CC4C3C2=O)cc1` (stereo not given), the TGI in experiment [1] is above 100 µM; in [2], 44 µM; in [3], 16.1 µM; in [4], 55.6 µM; in experiment [5] it was 26.7 µM; in [6] it was 55.1 µM. Further, the TGI stood at 8.06 µM in experiment [7]; 60.2 µM in experiment [8]; 30.8 µM in [9]; 99.5 µM in experiment [10]; 90.6 µM in experiment [11]; 39.5 µM in experiment [12]. The molecule also showed a TGI in experiment [13] above 100 µM.
`N=c1oc2ccccc2cc1C(=O)Nc1cccc2ccccc12`: the TGI in [1], in [2], in [3], in [4], in experiment [5] and in experiment [6] was above 100 µM each time. Also, the TGI in [7], in experiment [8], in experiment [9], in experiment [10], in experiment [11] and in experiment [14] was above 100 µM throughout.
As to `O=C(Sc1c(-c2ccccc2)c(=O)n(-c2ccccc2)c(=S)n1-c1ccccc1)c1ccccc1`, the TGI in experiment [1] is above 100 µM; in [2], above 100 µM; in [3] it was above 100 µM; in experiment [4], above 100 µM; in [6], above 100 µM; in experiment [7], 73.3 µM. For the same molecule, the TGI was above 100 µM in experiment [8]; above 100 µM in [9]; above 100 µM in experiment [10]; above 100 µM in experiment [11]; 88.2 µM in experiment [14]; above 100 µM in experiment [12]. In experiment [13], this molecule displayed a total growth inhibition concentration (TGI) above 100 µM.
For `O=C1CSC(c2ccccc2O)N1c1ccc2c(c1)Oc1c(Cl)c3c(c(Cl)c1=N2)Oc1cc(N2C(=O)CSC2c2ccccc2O)ccc1N=3` (stereo not given), the TGI in experiment [2] is above 100 µM; in experiment [3] it was above 100 µM; in [4], above 100 µM; in experiment [5], above 100 µM; in [6] it was above 100 µM; in experiment [7] it was 46.4 µM. For the same molecule, the TGI in experiment [8], in experiment [9], in [10], in experiment [11], in [12] and in experiment [13] was above 100 µM throughout.
In the case of `CCCCN=NNc1cn(C2OC(CO)C(O)C2O)c(=O)[nH]c1=O` (stereo not given), the TGI in [1], in [2], in experiment [4], in experiment [5], in [6] and in experiment [7] was above 100 µM each time. The concentration for total growth inhibition (TGI) in experiment [8], in experiment [9], in experiment [10], in experiment [11] and in experiment [12] was above 100 µM throughout.
For `CC(Br)CN1CCOCC1` (stereo not given), the TGI in experiment [1], in [2], in experiment [3], in experiment [4], in experiment [5] and in experiment [6] was above 100 µM each time. For the same molecule, the TGI in [8], in experiment [9], in experiment [10], in [11], in experiment [12] and in experiment [13] was above 100 µM each time.
As for `CCCCC(=O)/C=c1/cc(C)[nH]c2cccc3cnn1c32`, the TGI in [1], in experiment [2], in experiment [4], in experiment [5], in experiment [6] and in [7] was above 100 µM each time. Also, the TGI in experiment [8], in experiment [9], in [10], in experiment [11], in experiment [12] and in experiment [13] was above 100 µM each time.
For the molecule `O=Cc1ccc2ccocc1-2`, the TGI in experiment [1], in experiment [2], in experiment [3], in experiment [4], in [5] and in experiment [6] was above 100 µM in each case. In addition, the TGI in experiment [7], in experiment [8], in [9], in [10], in [12] and in experiment [13] was above 100 µM throughout.
For the molecule `CCc1n[nH]c(=O)n1CC`, the TGI in [1], in experiment [2], in [3], in [4], in experiment [5] and in [6] was above 100 µM throughout. Further, the TGI in experiment [7], in experiment [8], in [9], in [10], in experiment [11] and in experiment [12] was above 100 µM throughout. This molecule also gave a TGI in experiment [13] above 100 µM.
Consider `O=c1[nH]c(=O)c2c([nH]1)[nH]c1ccc(Br)cc12`, for which the TGI in experiment [1], in [2], in experiment [4], in experiment [5], in experiment [6] and in [8] was above 100 µM throughout. Further, the TGI in experiment [9], in experiment [10], in experiment [14], in experiment [12] and in experiment [13] was above 100 µM throughout.
